Legend:
[1] = tested on: locally advanced or metastatic urothelial cancer; experiment: Phase 2 single-arm, open-label study of enfortumab vedotin 1.25 mg/kg IV on Days 1, 8, 15 of each 28-day cycle: efficacy (confirmed ORR, DOR, PFS per RECIST 1.1 by BICR; OS); type: in vivo, human; details: for ORR point estimates for all subgroups: ORR subgroup analysis
Description: This is a single-arm, open-label, multicenter trial designed to assess the efficacy and safety of enfortumab vedotin as a single agent in locally advanced or metastatic urothelial cancer patients who have previously received systemic therapy with a CPI. For the purpose of this study a CPI is defined as a programmed cell death protein 1 (PD-1) inhibitor or programmed death-ligand 1 (PD-L1) inhibitor (including, but not limited to: atezolizumab, pembrolizumab, durvalumab, avelumab, and nivolumab). Patients must either have received prior treatment with platinum-containing chemotherapy (Cohort 1) or received no prior treatment with platinum-containing or other chemotherapy and are ineligible for treatment with cisplatin at time of enrollment (Cohort 2).
Enfortumab vedotin at a dose of 1.25 mg/kg will be administered as an intravenous (IV) infusion over approximately 30 minutes on Days 1, 8, and 15 of each 28-day cycle. Patients will continue to receive study treatment until disease progression, unacceptable toxicity, investigator decision, consent withdrawal, start of a subsequent anticancer therapy, pregnancy, or study termination by the sponsor. After discontinuation of study treatment, patients will be followed every 8 weeks (1 week) for response assessments, ECOG performance status, and physical exams. After 1 year of on study, the frequency of follow-up exams including response assessments will be reduced to every 12 weeks (+1 week). Patients that have progressed or begun subsequent anticancer therapy will be contacted every 8 weeks (1 week) up to 1 year on study, and every 12 weeks (+1 week) thereafter to obtain information on subsequent anticancer therapy, and survival status until death, study closure, or withdrawal of consent, whichever occurs first. The study will be closed 5 years after enrollment of the last patient, or when no patients remain in long-term follow-up, whichever occurs first. Additionally, the sponsor may terminate the study at any time.
Measures of anticancer activity will be assessed by computed tomography (CT) scans with contrast approximately every 8 weeks (±1 week). After 1 year on study, response assessments will be reduced to every 12 weeks (±1 week). The schedule of response assessments should not be adjusted for dose delays/interruptions or other reasons for changes in the timing of a patient's study activities; timepoints for response assessments should be calculated from Cycle 1 Day 1 during treatment. For patients who cannot receive CT scans with contrast, other protocol-specified imaging methods may be used. Patients must be evaluated using the same imaging method throughout the study for efficacy assessments. CT scans with contrast at the minimum will include the chest, abdomen, and pelvis. Other regions should be scanned if the patient has known or suspected disease in that region. Responses (complete response (CR) or partial response (PR)) will be confirmed with repeat scans 4 weeks (+1 week window) after first documentation of response. The determination of antitumor activity will be based on confirmed objective response assessments as defined by RECIST Version 1.1.
Response and progression will be assessed by an independent review facility (IRF). The investigator will make treatment decisions based on site assessments of scans by RECIST.
The primary endpoint of this study is the confirmed ORR per IRF. The ORR is defined as the proportion of patients with confirmed CR or PR according to RECIST Version 1.1. The ORR per IRF and its exact 2-sided 95% confidence interval (CI) using the Clopper-Pearson method (Clopper et al., Biometrika (1934); 26(4): 404-413) will be calculated.
The primary efficacy endpoint of this study is ORR (confirmed CR or PR per Response Evaluation Criteria in Solid Tumors (RECIST) Version 1.1) as determined by blinded independent central review (BICR) by an independent review facility (IRF). […]

191P4D12 = biological target: T1, 191P4D12 (Homo sapiens, UniProt Q96NY8); experiment: Analytical and biological characterization studies: comparability of enfortumab vedotin and AGS-22M6E
T1 sequence (Q96NY8 32-510): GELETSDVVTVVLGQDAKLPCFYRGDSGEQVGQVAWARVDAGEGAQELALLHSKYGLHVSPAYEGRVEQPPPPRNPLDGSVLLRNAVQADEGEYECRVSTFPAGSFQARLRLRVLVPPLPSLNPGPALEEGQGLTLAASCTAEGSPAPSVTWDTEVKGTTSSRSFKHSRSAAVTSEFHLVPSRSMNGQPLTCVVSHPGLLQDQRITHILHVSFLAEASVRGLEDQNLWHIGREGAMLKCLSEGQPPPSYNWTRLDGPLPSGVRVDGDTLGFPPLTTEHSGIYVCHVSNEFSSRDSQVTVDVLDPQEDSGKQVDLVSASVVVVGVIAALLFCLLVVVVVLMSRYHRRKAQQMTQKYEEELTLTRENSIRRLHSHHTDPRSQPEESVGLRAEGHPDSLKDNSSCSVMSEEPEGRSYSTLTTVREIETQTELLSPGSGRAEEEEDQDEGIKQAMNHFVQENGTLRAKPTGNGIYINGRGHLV
Description: As described above and in U.S. Pat. No. 8,637,642, AGS-22M6E is an ADC derived from a murine hybridoma cell line. Enfortumab vedotin is a Chinese hamster ovary (CHO) cell line-derived equivalent of AGS-22M6E ADC and is an exemplary product used for human treatment. Enfortumab vedotin has the same amino acid sequence, linker and cytotoxic drug as AGS-22M6E. The comparability between enfortumab vedotin and AGS-22M6E was confirmed through extensive analytical and biological characterization studies, such as binding affinity to 191P4D12, in vitro cytotoxicity, and in vivo antitumor activity.

[2] = Cohort 2 (N = 89), BICR, additional 3 months follow-up
[3] = Cohort 2 (N = 89), BICR, primary analysis
[4] = Cohort 2, BICR, additional 3 months follow-up
[5] = Cohort 2, BICR, primary analysis
[6] = Cohort 2, Kaplan-Meier, additional 3 months follow-up
[7] = Cohort 2, additional 3 months follow-up

With “enfortumab vedotin: Nectin-4 directed ADC: fully human anti-nectin-4 IgG1 kappa antibody (AGS-22C3) conjugated to MMAE via protease-cleavable maleimidocaproyl valine-citrulline linker” the “Best Overall Response: Complete Response (CR)” value [1, 2] was 20 (22.5) n (%), the “Best Overall Response: Not Evaluable (NE)” value [1, 2] was 8 (9.0) n (%) and the “Best Overall Response: Partial Response (PR)” value [1, 2] was 25 (28.1) n (%). For the same substance, the “Best Overall Response: Progressive Disease (PD)” value [1, 2] was 19 (10.1) n (%), the “ORR (CR or PR)” value [1, 2] was 45 (50.6) n (%) and the “Best Overall Response: Complete Response (CR)” value [1, 3] was 18 (20.2) n (%). The “Best Overall Response: Not Evaluable (NE)” value [1, 3] was 8 (9.0) n (%), the “Best Overall Response: Partial Response (PR)” value [1, 3] was 28 (31.5) n (%) and the “Best Overall Response: Progressive Disease (PD)” value [1, 3] was 8 (9.0) n (%). For the same substance, the “ORR (CR or PR)” value [1, 3] was 46 (51.7) n (%), the “Number of responders (confirmed CR or PR)” value ([1]; Cohort 2 (N = 89), additional 3 months follow-up) was 45 and the “95% CI of confirmed ORR” value [1, 4] was 39.8-61.3%. The “CR among treated patients” value [1, 4] was 22%, the “confirmed ORR” value [1, 4] was 51% and the “CR (complete response rate)” value [1, 5] was 20.2%. The ORR [1, 5] was 51.7%, the “median DOR” value [1, 5] was 10.9 months and the “median PFS” value [1, 5] was 5.8 months. The “participants with reduction in tumor measurements” value [1, 5] was 88%, the “responders with ongoing response (18 out of 46)” value [1, 5] was 39% and the “% Responders without PD or death (95% CI)” value [1, 6] was 35.8 (14.49, 57.91) %. The “% Responders without PD or death at 6 months (95% CI)” value [1, 6] was 67.9 (51.11, 79,95) %, the “% Responders without PD or death at 12 months (95% CI)” value [1, 6] was 53.7 (35.51, 68.85) % and the “Duration of response, 25th percentile” value [1, 6] was 5.8, − months. For the same substance, the “Duration of response, Median (95% CI)” value [1, 6] was 13.8 (6.41, −) months, the “ORR point estimates for all subgroups” value [1, 7] was “more than 40%” and the “ORR point estimates for all subgroups” value ([1]; Cohort 2, primary analysis) was “more than 40%”. The “95% CI of median PFS” value [1, 7] was 5.0(8.3) months, the “median DOR” value [1, 7] was 13.8 months and the “median PFS” value [1, 7] was 6.7 months. For the same substance, the “median OS” value ([1]; Cohort 2, additional 3 months follow-up, median follow-up 16.0 months) was 16.1 months, the ORR ([1]; Cohort 2, patients who did not respond to prior PD-1/PD-L1 inhibitors, additional 3 months follow-up) was 46% and the ORR ([1]; Cohort 2, patients with liver metastasis, additional 3 months follow-up) was 43%. The ORR ([1]; Cohort 2, patients with primary tumor sites in the upper tract, additional 3 months follow-up) was 58%, the “median OS” value ([1]; Cohort 2, primary analysis, median follow-up 13.4 months) was 14.7 months and the “comparability between enfortumab vedotin and AGS-22M6E (binding affinity to 191P4D12, in vitro cytotoxicity, in vivo antitumor activity)” value (191P4D12) was “confirmed”.

Reference: patent US20230364254A1, “METHODS FOR TREATING CANCERS WITH ANTIBODY DRUG CONJUGATES (ADC) THAT BIND TO 191P4D12 PROTEINS” (priority 2020, published 2023)
